One experiment deals with B-Raf (Homo sapiens, UniProt P15056). Nature of the experiment: B-Raf Accelerated MEK ATPase assay (BRAMA). It counts as biochemical. The note with it: BRAMA enzyme assay; class by pIC50; read-out: B-Raf Activity. The method, then:
Compounds of the present invention were tested for B-Raf […] inhibitory activity in a B-Raf Accelerated MEK ATPase assay (BRAMA). The BRAMA assay is a high sensitivity assay which measures an intrinsic MEK-mediated ATP hydrolysis uncoupled from downstream ERK phosphorylation by coupling the formation of ADP to NADH oxidation through the enzymes pyruvate kinase and lactate dehydrogenase. When ADP production is initiated by addition of catalytic amounts of an activated RAF enzyme and non-phosphorylated MEK, one observes robust ADP production concomitant with RAF-mediated phosphorylation of MEK. Specific details of the assay are disclosed in: C. Rominger, M. Schaber, E. May. Assay for B-Raf Activity Based on Intrinsic MEK ATPase Activity.

In a further experiment the test system is Colo205 tumor cells. Nature of the experiment: Cell growth inhibition assay (CellTiter-Glo), Colo205.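 Note: growth measured via total ATP luminescence (CellTiter-Glo) as a proxy for cell number, inhibition expressed against DMSO-treated control wells, 3-day exposure at 0.2% final DMSO.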 The note with it: Homo sapiens, COLO 205, 72 h, read-out: Activity in Colo205 Tumor Cells.
The next experiment has as its system SK-MEL-28 tumor cells. Put plainly: Cell growth inhibition assay (CellTiter-Glo), SK-MEL-28.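 Note: luminescent total ATP as a proxy for cell number, threefold serial dilutions at 0.2% DMSO, percent growth inhibition versus DMSO vehicle control wells.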 The note with it: Homo sapiens, SK-MEL-28, 72 h, read-out: Activity in SK-MEL-28 Tumor Cells.

Each structure is given as a SMILES string.

Sequence of B-Raf (P15056 whole entry): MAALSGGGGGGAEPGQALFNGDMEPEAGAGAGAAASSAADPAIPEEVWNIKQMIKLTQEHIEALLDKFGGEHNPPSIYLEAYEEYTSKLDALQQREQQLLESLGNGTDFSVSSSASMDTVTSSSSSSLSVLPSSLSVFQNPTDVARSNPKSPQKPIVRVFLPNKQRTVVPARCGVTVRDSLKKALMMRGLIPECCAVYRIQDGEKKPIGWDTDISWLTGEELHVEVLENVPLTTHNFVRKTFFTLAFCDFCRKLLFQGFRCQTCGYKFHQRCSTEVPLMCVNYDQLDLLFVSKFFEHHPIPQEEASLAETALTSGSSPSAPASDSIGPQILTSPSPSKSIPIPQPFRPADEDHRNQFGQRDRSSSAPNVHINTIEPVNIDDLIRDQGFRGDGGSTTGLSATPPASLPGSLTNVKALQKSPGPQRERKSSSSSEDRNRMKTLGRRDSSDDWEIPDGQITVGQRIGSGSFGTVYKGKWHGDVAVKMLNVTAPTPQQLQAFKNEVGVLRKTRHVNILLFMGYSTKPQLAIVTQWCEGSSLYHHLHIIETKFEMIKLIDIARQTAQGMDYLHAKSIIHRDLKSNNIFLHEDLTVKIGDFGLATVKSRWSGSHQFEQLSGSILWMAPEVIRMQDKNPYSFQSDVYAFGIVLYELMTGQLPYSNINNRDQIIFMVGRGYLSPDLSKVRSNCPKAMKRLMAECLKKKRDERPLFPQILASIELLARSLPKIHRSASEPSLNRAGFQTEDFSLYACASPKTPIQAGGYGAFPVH
Method for Colo205 tumor cells: Cell Growth Inhibition Assays Human colon tumor cells (Colo205) were cultured in RPMI (Mediatech 50-020-PB) containing 10% FBS and 1% penicillin-streptomycin. […] Human melanoma cancer cells (A375-F11S) were cultured in RPMI (Mediatech 50-020-PB) containing 10% FBS, 1% sodium pyruvate, and 1% penicillin-streptomycin. Human colon cancer cells (HT-29) were cultured in high glucose DMEM (Mediatech 50-013-PB) containing 10% FBS and 1% penicillin-streptomycin. Human melanoma cancer cells (SK-MEL-3) were cultured in McCoy's 5A (50-025-PB) containing 15% FBS, and 1% penicillin-streptomycin. All cell lines were maintained at 37° C. in a humidified 5% CO2, 95% air incubator.
The next day, compounds were diluted as follows: For 96-well assays, 13.5 μl of compound in DMSO were diluted using nine (9) serial 1:3 dilutions of 4.5 μl in 9 μl of DMSO. Medium (270 μl/well of RPMI with 10% FBS and 1% penicillin-streptomycin) was added to the plates. Aliquots (7 μl) were added to cells in the final assay giving a final DMSO concentration of 0.2%. For 384-well assays, 15 μl of compound in DMSO were diluted using nine (9) serial 1:3 dilutions of 5 μl in 10 μl of DMSO, followed by a further dilution of 5 μl of compound with 95 μl of medium, of which 2 μl are added to cells in the final assay giving a final DMSO concentration of 0.2%. Cells were incubated at 37° C., 5% CO2 for 3 days.
Total ATP was measured (as a surrogate estimate of cell number) using CellTiter-Glo® (Promega G7571) reagent. Briefly, plates were removed from the incubator and allowed to equilibrate to room temperature for 30 minutes. CellTiter-Glo® (25 μl or 55 μl for 384-well or 96-well assays, respectively) reagent was added to each well and plates were shaken on an orbital plate shaker for 2 minutes. Plates were incubated without shaking for a further 30 minutes and read on an LJL Analyst GT reader in luminometer mode with an integration time of 0.5 seconds per well. Percent inhibition of cell growth was calculated relative to DMSO vehicle-treated control wells.

As for `CCc1nc(-c2ccc3cc[nH]c3c2)c(-c2ccnc(Nc3ccc(OC4CCN(CCS(C)(=O)=O)CC4)c(F)c3)n2)s1` [Example 68, 4-[2-Ethyl-4-(1H-indol-6-yl)-1,3-thiazol-5-yl]-N-[3-fluoro-4-({1-[2-(methylsulfonyl)ethyl]-4-piperidinyl}oxy)phenyl]-2-pyrimidinamine], the IC50 was less than 100 nM on B-Raf, 500 to 5000 nM in the experiment with Colo205 tumor cells and 500 to 5000 nM in the experiment on SK-MEL-28 tumor cells.

With `CCNc1nc(-c2cc(OC)cc(OC)c2)c(-c2ccnc(Nc3ccc(N4CCN(C)CC4)c(Cl)c3)n2)o1` [Example 69, 4-[4-[3,5-Bis(methyloxy)phenyl]-2-(ethylamino)-1,3-oxazol-5-yl]-N-[3-chloro-4-(4-methyl-1-piperazinyl)phenyl]-2-pyrimidinamine], the IC50 at B-Raf was less than 100 nM; in the experiment with Colo205 tumor cells, less than 500 nM; with SK-MEL-28 tumor cells it was 500 to 5000 nM.

For the compound `COc1cc(OC)cc(-c2nc(N)oc2-c2ccnc(Nc3ccc(OC4CCN(CCS(C)(=O)=O)CC4)c(F)c3)n2)c1` [Example 75, 4-{2-Amino-4-[3,5-bis(methyloxy)phenyl]-1,3-oxazol-5-yl}-N-[3-fluoro-4-({1-[2-(methylsulfonyl)ethyl]-4-piperidinyl}oxy)phenyl]-2-pyrimidinamine], the IC50 is less than 100 nM at B-Raf, 500 to 5000 nM in the experiment with Colo205 tumor cells and 500 to 5000 nM with SK-MEL-28 tumor cells.

In the case of `COc1cc(OC)cc(-c2nc(C)oc2-c2ccnc(Nc3ccc(OC4CCN(CCS(C)(=O)=O)CC4)c(F)c3)n2)c1` [Example 83], the IC50 on B-Raf is 100 to 1000 nM; in the experiment on Colo205 tumor cells, 500 to 5000 nM; in the experiment on SK-MEL-28 tumor cells, more than 5000 nM.

Regarding `CCNc1nc(-c2ccnc(O)c2)c(-c2ccnc(Nc3ccc(NCCN4CCCC4)c(Cl)c3)n2)s1` [Example 110], the IC50 on B-Raf is less than 100 nM; in the experiment with Colo205 tumor cells, 500 to 5000 nM; with SK-MEL-28 tumor cells, 500 to 5000 nM.

On to `CCNc1nc(-c2cc(OC)cc(OC)c2)c(-c2ccnc(Nc3ccc(CCN4CCOCC4)cc3)n2)o1` [Example 123], for which the IC50 on B-Raf was less than 100 nM; with Colo205 tumor cells, 500 to 5000 nM; with SK-MEL-28 tumor cells it was more than 5000 nM.

For `CCNc1nc(-c2cc(C)cc(OC)c2)c(-c2ccnc(Nc3ccc(OC4CCN(CCF)CC4)c(C)c3)n2)o1` [Example 126], the IC50 on B-Raf was less than 100 nM; with Colo205 tumor cells it was 500 to 5000 nM; with SK-MEL-28 tumor cells, 500 to 5000 nM.

Turning to `CCNc1nc(-c2cc(OC)cc(OC)c2)c(-c2ccnc(Nc3ccc(N4CCN5CCCCC5C4)c(F)c3)n2)o1` (stereo not shown) [Example 134], the IC50 is less than 100 nM at B-Raf, 500 to 5000 nM in the experiment on Colo205 tumor cells and 500 to 5000 nM in the experiment on SK-MEL-28 tumor cells.

Take `CCNc1nc(-c2ccnc(O)c2)c(-c2ccnc(Nc3ccc(N4CCS(=O)(=O)CC4)nc3)n2)s1` [Example 79]: the IC50 on B-Raf is less than 100 nM; with Colo205 tumor cells it was more than 5000 nM; with SK-MEL-28 tumor cells, more than 5000 nM.

As for `CCNc1nc(-c2cc(C)cc(OC)c2)c(-c2ccnc(Nc3ccc(N4CCN(CCOC)CC4)c(C(=O)O)c3)n2)o1` [Example 130], the IC50 on B-Raf is less than 100 nM; in the experiment with Colo205 tumor cells, 500 to 5000 nM; in the experiment on SK-MEL-28 tumor cells it was 500 to 5000 nM.

As to `Nc1cccc(-c2nc(N3CCCC3)sc2-c2ccnc(Nc3ccc(NCCN4CCCC4)c(F)c3)n2)c1` [Example 109], the IC50 at B-Raf was less than 100 nM; in the experiment with Colo205 tumor cells it was 500 to 5000 nM; with SK-MEL-28 tumor cells it was 500 to 5000 nM.

Consider `CCNc1nc(-c2cc(OC)cc(OC)c2)c(-c2ccnc(Nc3cc(F)c(OC4CCN(CCF)CC4)c(F)c3)n2)o1` [Example 93], for which the IC50 is less than 100 nM at B-Raf, 500 to 5000 nM with Colo205 tumor cells and 500 to 5000 nM in the experiment on SK-MEL-28 tumor cells.

On to `CCNc1nc(-c2cc(O)ccn2)c(-c2ccnc(Nc3ccc(OCCN4CCCC4)c(Cl)c3)n2)s1` [Example 97], for which the values for the IC50 at B-Raf, in the experiment with Colo205 tumor cells and in the experiment with SK-MEL-28 tumor cells were 100 to 1000 nM, more than 5000 nM and more than 5000 nM, respectively.

In the case of `CCNc1nc(-c2cc(OC)cc(OC)c2)c(-c2ccnc(Nc3ccc(N4CCN(C(=O)OCC)CC4)nc3)n2)o1` [Example 121], the IC50 at B-Raf is less than 100 nM; in the experiment with Colo205 tumor cells, more than 5000 nM; in the experiment on SK-MEL-28 tumor cells it was more than 5000 nM.

Consider `CCNc1nc(-c2cc(OC)cc(OC)c2)c(-c2ccnc(Nc3ccc(OC4CCN(CCF)CC4)c(C)c3)n2)o1` [Example 88], for which the IC50 was less than 100 nM at B-Raf, 500 to 5000 nM in the experiment on Colo205 tumor cells and 500 to 5000 nM with SK-MEL-28 tumor cells.

On to `CCNc1nc(-c2cc(C)cc(OC)c2)c(-c2ccnc(Nc3ccc(N4CCOCC4)c(C(=O)O)c3)n2)s1` [Example 26, 5-[(4-{2-(Ethylamino)-4-[3-methyl-5-(methyloxy)phenyl]-1,3-thiazol-5-yl}-2-pyrimidinyl)amino]-2-(4-morpholinyl)benzoic acid], for which the figures for the IC50 on B-Raf, with Colo205 tumor cells and with SK-MEL-28 tumor cells were less than 100 nM, less than 500 nM and less than 500 nM, respectively.

Consider `CCNc1nc(-c2cc(C)cc(OC)c2)c(-c2ccnc(Nc3ccc(N4CCN5CCCCC5C4)c(F)c3)n2)s1` (stereo not shown) [Example 114], for which the IC50 on B-Raf is less than 100 nM; with Colo205 tumor cells, 500 to 5000 nM; in the experiment with SK-MEL-28 tumor cells it was 500 to 5000 nM.

Regarding `COc1cccc(-c2nc(CF)sc2-c2ccnc(Nc3ccc(OCCN4CCCC4)c(F)c3)n2)c1` [Example 73, 4-{2-(Fluoromethyl)-4-[3-(methyloxy)phenyl]-1,3-thiazol-5-yl}-N-(3-fluoro-4-{[2-(1-pyrrolidinyl)ethyl]oxy}phenyl)-2-pyrimidinamine], the IC50 at B-Raf was less than 100 nM; in the experiment on Colo205 tumor cells it was 500 to 5000 nM; in the experiment with SK-MEL-28 tumor cells, 500 to 5000 nM.

Consider `CCc1nc(-c2cc(OC)cc(OC)c2)c(-c2ccnc(Nc3ccc(N4CCN(C)CC4)c(F)c3)n2)o1` [Example 85], for which the figures for the IC50 on B-Raf, in the experiment on Colo205 tumor cells and in the experiment with SK-MEL-28 tumor cells were less than 100 nM, 500 to 5000 nM and 500 to 5000 nM, respectively.

Regarding `CCNc1nc(-c2cc(OC)cc(OC)c2)c(-c2ccnc(Nc3ccc4c(c3)N(C(C)=O)CC4)n2)o1` [Example 122], the IC50 was less than 100 nM at B-Raf, 500 to 5000 nM in the experiment with Colo205 tumor cells and 500 to 5000 nM in the experiment on SK-MEL-28 tumor cells.

`CCNc1nc(-c2cccc(OC)c2F)c(-c2ccnc(Nc3ccc(OC4CCN(CCS(C)(=O)=O)CC4)c(F)c3)n2)s1` [Example 48, 4-{2-(Ethylamino)-4-[2-fluoro-3-(methyloxy)phenyl]-1,3-thiazol-5-yl}-N-[3-fluoro-4-({1-[2-(methylsulfonyl)ethyl]-4-piperidinyl}oxy)phenyl]-2-pyrimidinamine]: the IC50 is less than 100 nM at B-Raf, less than 500 nM in the experiment with Colo205 tumor cells and less than 500 nM in the experiment on SK-MEL-28 tumor cells.

`CCNc1nc(-c2cc(C)cc(OC)c2)c(-c2ccnc(Nc3ccc(N4CCN5CCOC[C@H]5C4)nc3)n2)s1` [Example 71, 4-{2-(Ethylamino)-4-[3-methyl-5-(methyloxy)phenyl]-1,3-thiazol-5-yl}-N-{6-[(9aR)-hexahydropyrazino[2,1-c][1,4]oxazin-8(1H)-yl]-3-pyridinyl}-2-pyrimidinamine]: the IC50 on B-Raf was less than 100 nM; in the experiment on Colo205 tumor cells, less than 500 nM; in the experiment on SK-MEL-28 tumor cells, less than 500 nM.

Regarding `COc1cc(OC)cc(-c2nc(N)oc2-c2ccnc(Nc3ccc(N4CCN(C)CC4)c(F)c3)n2)c1` [Example 86], the IC50 at B-Raf is less than 100 nM; in the experiment on Colo205 tumor cells, 500 to 5000 nM; with SK-MEL-28 tumor cells it was 500 to 5000 nM.

Consider `COc1cc(OC)cc(-c2nc(C)oc2-c2ccnc(Nc3ccc(N4CCN(C)CC4)c(F)c3)n2)c1` [Example 84], for which the IC50 at B-Raf is less than 100 nM; in the experiment with Colo205 tumor cells, 500 to 5000 nM; with SK-MEL-28 tumor cells, 500 to 5000 nM.

With `CCNc1nc(-c2ccnc(OC)c2)c(-c2ccnc(Nc3ccc(OCCN4CCCC4)c(Cl)c3)n2)s1` [Example 58, N-(3-Chloro-4-{[2-(1-pyrrolidinyl)ethyl]oxy}phenyl)-4-{2-(ethylamino)-4-[2-(methyloxy)-4-pyridinyl]-1,3-thiazol-5-yl}-2-pyrimidinamine], the IC50 is less than 100 nM at B-Raf, less than 500 nM in the experiment on Colo205 tumor cells and less than 500 nM in the experiment on SK-MEL-28 tumor cells.

`CCc1nc(-c2cc(C)cc(OC)c2)c(-c2ccnc(Nc3ccc(N4CCN5CCOC[C@H]5C4)nc3)n2)s1` [Example 80]: the IC50 is less than 100 nM on B-Raf, more than 5000 nM with Colo205 tumor cells and more than 5000 nM with SK-MEL-28 tumor cells.

Consider `CCNc1nc(-c2cc(C)cc(OC)c2)c(-c2ccnc(Nc3ccc(N4CCN5CCCCC5C4)c(F)c3)n2)o1` (stereo not shown) [Example 132], for which the IC50 was less than 100 nM at B-Raf, 500 to 5000 nM in the experiment on Colo205 tumor cells and 500 to 5000 nM with SK-MEL-28 tumor cells.

Consider `COc1cccc(-c2nc(C(C)C)sc2-c2ccnc(Nc3ccc(NCCN4CCCC4)cc3)n2)c1` [Example 76, N-(4-{2-(1-Methylethyl)-4-[3-(methyloxy)phenyl]-1,3-thiazol-5-yl}-2-pyrimidinyl)-N′-[2-(1-pyrrolidinyl)ethyl]-1,4-benzenediamine], for which the figures for the IC50 on B-Raf, in the experiment with Colo205 tumor cells and with SK-MEL-28 tumor cells were less than 100 nM, 500 to 5000 nM and 500 to 5000 nM, respectively.

On to `CCNc1nc(-c2ccnc(OC)c2)c(-c2ccnc(Nc3ccc(N4CCN(C)CC4)c(F)c3)n2)s1` [Example 111], for which the IC50 on B-Raf is less than 100 nM; with Colo205 tumor cells, 500 to 5000 nM; in the experiment with SK-MEL-28 tumor cells it was more than 5000 nM.

For the compound `CCNc1nc(-c2cc(C)cc(OCC)c2)c(-c2ccnc(Nc3ccc(N4CCN(C)CC4)c(F)c3)n2)s1` [Example 39, 4-{2-(Ethylamino)-4-[3-(ethyloxy)-5-methylphenyl]-1,3-thiazol-5-yl}-N-[3-fluoro-4-(4-methyl-1-piperazinyl)phenyl]-2-pyrimidinamine], the IC50 at B-Raf was less than 100 nM.

Consider `CCNc1nc(-c2cc(C)cc(OC)c2)c(-c2ccnc(Nc3ccc(N4CCN(C(C)=O)CC4)nc3)n2)o1` [Example 100], for which the values for the IC50 on B-Raf, in the experiment with Colo205 tumor cells and with SK-MEL-28 tumor cells were less than 100 nM, less than 500 nM and less than 500 nM, respectively.

(Values after patent US20110190280A1, “Thiazole And Oxazole Kinase Inhibitors” (priority 2007, published 2011).)
